According to patent US6699860B2, “Di-substituted aminomethyl-chroman derivative beta-3 adrenoreceptor agonists” (Bayer Pharmaceuticals Corporation, priority 2000, dated 2004):
Structures can show the parent of a compound that is named as a salt.

Test system: not given
Assay: not given
Conditions: not given

SMILES	melting point [°C]
O=C(O)c1ccc(-c2ccc3c(c2)CC[C@H](CNC[C@H](O)COc2ccccc2)O3)cc1 (as salt: hydrochloride) [Example 142, 4-[(2R)-2-({[(2S)-2-Hydroxy-3-phenoxyropyl]amino}methyl)-3,4-dihydro-2H-chromen-6-yl]benzoic acid]	250

Target: T1, human beta-3-adrenergic receptor (Homo sapiens, UniProt P13945)
T1 construct: Chinese hamster ovary (CHO) cells that stably express full-length human beta-3-adrenergic receptor; expressed in transfected cells
T1 sequence (P13945 whole entry): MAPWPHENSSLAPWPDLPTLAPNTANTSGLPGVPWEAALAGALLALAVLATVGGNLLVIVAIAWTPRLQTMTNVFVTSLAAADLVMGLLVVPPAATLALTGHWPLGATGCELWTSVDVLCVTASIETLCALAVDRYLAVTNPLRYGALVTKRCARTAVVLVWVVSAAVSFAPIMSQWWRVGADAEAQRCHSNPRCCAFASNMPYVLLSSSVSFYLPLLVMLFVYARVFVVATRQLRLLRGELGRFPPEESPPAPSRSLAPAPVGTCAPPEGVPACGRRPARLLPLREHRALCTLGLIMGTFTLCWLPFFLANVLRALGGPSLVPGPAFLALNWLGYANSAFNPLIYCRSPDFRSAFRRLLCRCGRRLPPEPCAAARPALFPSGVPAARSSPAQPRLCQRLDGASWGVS
Assay: cAMP production (SPA) in CHO cells stably expressing human beta-3-adrenergic receptor, agonist activity
Assay type: cell-based
Conditions: cAMP production in CHO cells expressing human beta-3-adrenergic receptor; compounds binned (≦1 μM or >1 μM); read-out: Beta-3 Agonistic Activity, EC50 values
Experimental: The cell line is grown in 90% F12 nutrient mixture (HAM), 10% fetal bovine serum, 100 units/ml penicillin G sodium, […] streptomycin sulfate, and 2 mM L-glutamine at 37° C. in 95% air and 5% CO2. The transfected cell line is maintained with G418 (800ug/ml).
To test agonist activity, cells are exposed to test compound and then assayed for cAMP production. […] Test compounds are assayed from 10 μM to 3 nM with 3-fold serial dilutions. The control agonist, isoproterenol (10 mM stock in 1.1 mM ascorbate), is assayed by 3-fold dilution beginning at 1 μM. Following a 30-minute incubation with the test compounds, the buffer/compound mixture is removed. […] The cAMP values are then plotted to ascertain the EC50 of each compound tested.

SMILES	EC50 [nM]
COC(=O)c1ccc2cc(-c3ccc4c(c3)CC[C@H](CNC[C@H](O)COc3ccccc3)O4)ccc2c1 [Example 103, methyl 6-[(2R)-2-({[(2S)-2-hydroxy-3-phenoxypropyl]amino}methyl)-3,4-dihydro-02H-chromen-6-yl]-2-naphthoate]	≤ 1000
COC(=O)c1cc(-c2ccc3c(c2)CC[C@H](CNC[C@H](O)COc2ccccc2)O3)cs1 [Example 133]	≤ 1000
O=C(NC1CCCCC1)c1cc(-c2ccc3c(c2)CC[C@H](CNC[C@H](O)COc2ccccc2)O3)ccn1 [Example 96]	> 1000
COc1cc(-c2ccc3c(c2)CCC(CNC[C@H](O)COc2ccccc2)O3)ccc1C(=O)O (stereo in doubt) [Example 206, 4-[(2S)-2-({[(2S)-2-hydroxy-3-phenoxypropyl]amino}methyl)-3,4-dihydro-2H-chromen-6-yl]-2-methoxybenzoic acid]	≤ 1000
Cc1ccc(-c2cc(-c3ccc4c(c3)CC[C@H](CNC[C@H](O)COc3ccccc3)O4)ccc2C(=O)O)cc1 [Example 217]	≤ 1000
COCCc1ccc(OC[C@@H](O)CNC[C@H]2CCc3cc(-c4ccc(C(=O)O)cc4)ccc3O2)cc1 [Example 139, 4-{(2R)-2-[({(2S)-2-hydroxy-3-[4-(2-methoxyethyl)phenoxy]propyl}amino)methyl]-3,4-dihydro-2H-chromen-6-yl}benzoic acid]	≤ 1000
COC(=O)c1nc(-c2ccc3c(c2)CC[C@H](CNC[C@H](O)COc2ccccc2)O3)sc1-c1ccccc1 [Example 135]	≤ 1000
CC(C)c1cccc(C(C)C)c1OC[C@@H](O)CNC[C@H]1CCc2cc(-c3ccc(C(=O)O)cc3)ccc2O1 [Example 140, 4-[(2R)-2-({[(2S)-3-(2,6-diisopropylphenoxy)-2-hydroxypropyl]amino}methyl)-3,4-dihydro-2H-chromen-6-yl]benzoic acid]	> 1000
O=C(O)CCc1ccc2c(c1)CC[C@H](CNC[C@H](O)COc1ccccc1)O2 [Example 263, 3-[(2R)-2-({[(2S)-2-Hydroxy-3-phenoxypropyl]amino}methyl)-3,4-dihydro-2H-chromen-6-yl]propanoic acid]	≤ 1000
Cc1c(-c2ccc3c(c2)CC[C@H](CNC[C@H](O)COc2ccccc2)O3)c(C(=O)O)nn1C [Example 184]	≤ 1000
O=C(O)c1nc(-c2ccc3c(c2)CC[C@H](CNC[C@H](O)COc2ccccc2)O3)sc1-c1ccccc1 [Example 188]	≤ 1000
O=C(O)c1ccc(-c2ccc3c(c2)CC[C@H](CNC[C@H](O)CSc2cccc(F)c2)O3)cc1 [Example 175]	> 1000
COC(=O)c1ccc(-c2ccc3c(c2)CC[C@H](CNC[C@H](O)COc2ccccc2)O3)cc1 [Example 84, Methyl 4-[(2R)-2-({[(2S)-2-hydroxy-3-phenoxypropyl]amino}methyl)-3,4-dihydro-2H-chromen-6-yl]benzoate]	≤ 1000
CCOC(=O)c1sc(-c2ccc3c(c2)CC[C@H](CNC[C@H](O)COc2ccccc2)O3)nc1-c1ccccc1 [Example 136]	> 1000
O=C(O)c1ccc(-c2ccc3c(c2)CC[C@H](CNC[C@H](O)CSc2cccc(C(F)(F)F)c2)O3)cc1 [Example 180]	> 1000
O=C(O)c1nc(-c2ccc3c(c2)CC[C@H](CNC[C@H](O)COc2ccccc2)O3)oc1-c1ccccc1 [Example 187]	≤ 1000
CCc1ccc(SC[C@@H](O)CNC[C@H]2CCc3cc(-c4ccc(C(=O)O)cc4)ccc3O2)cc1 [Example 170]	> 1000
